According to patent US20250214991A1 (Oncopia Therapeutics, Inc. d/b/a/ SK Life Science Labs, priority 2022, published 2025):

Key:
CRBN/DDB1 = CRBN/DDB1 (Homo sapiens (Human), UniProt Q96SW2); assay: IC50 measurements for binding to CRBN/DDB1 (HTRF); details: His tagged CRBN+DDB, Cy5-labeled Thalidomide probe, one hour
How it was run: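 HTRF competition binding with 2 nM His-tagged CRBN-DDB1 complex, 60 nM Cy5-thalidomide probe and 0.4 nM anti-His Tb cryptate in 50 mM HEPES pH 7.5, 1 mM TCEP, 0.01% Brij-35, 50 mM NaCl, 0.1% BSA. Read after 1 h at room temperature; IC50 from four-parameter dose-response fit.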

IKZF2 = IKZF2 (Homo sapiens (Human), UniProt Q96SW2+Q9UKS7); assay: In vitro IKZF2 Western Blot Assay in Jurkat cells; format: cell-based; details: 24 hrs; for inhibition at 0.001 µM: read-out: IKZF2 degradation (%) @ μM 0.001; for inhibition at 0.01 µM: read-out: IKZF2 degradation (%) @ μM 0.01; for inhibition at 0.1 µM: read-out: IKZF2 degradation (%) @ μM 0.1; for inhibition at 1 µM: read-out: IKZF2 degradation (%) @ μM 1; for inhibition at 10 µM: read-out: IKZF2 degradation (%) @ μM 10
IKZF2, sequence (Q9UKS7 whole entry): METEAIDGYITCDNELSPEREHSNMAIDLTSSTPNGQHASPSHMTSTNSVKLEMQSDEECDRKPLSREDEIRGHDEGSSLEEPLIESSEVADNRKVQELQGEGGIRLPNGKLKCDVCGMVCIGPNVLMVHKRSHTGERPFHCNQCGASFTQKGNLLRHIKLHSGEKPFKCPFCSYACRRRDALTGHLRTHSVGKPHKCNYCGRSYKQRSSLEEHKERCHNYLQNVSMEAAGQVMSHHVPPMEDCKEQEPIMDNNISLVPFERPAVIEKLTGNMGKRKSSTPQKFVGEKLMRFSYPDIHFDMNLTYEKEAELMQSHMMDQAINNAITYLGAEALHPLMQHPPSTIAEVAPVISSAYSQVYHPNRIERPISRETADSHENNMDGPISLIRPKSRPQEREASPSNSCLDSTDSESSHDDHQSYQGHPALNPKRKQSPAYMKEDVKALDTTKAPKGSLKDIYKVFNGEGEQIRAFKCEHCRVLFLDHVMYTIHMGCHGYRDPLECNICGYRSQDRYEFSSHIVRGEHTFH
IKZF2, sequence (Q96SW2 whole entry): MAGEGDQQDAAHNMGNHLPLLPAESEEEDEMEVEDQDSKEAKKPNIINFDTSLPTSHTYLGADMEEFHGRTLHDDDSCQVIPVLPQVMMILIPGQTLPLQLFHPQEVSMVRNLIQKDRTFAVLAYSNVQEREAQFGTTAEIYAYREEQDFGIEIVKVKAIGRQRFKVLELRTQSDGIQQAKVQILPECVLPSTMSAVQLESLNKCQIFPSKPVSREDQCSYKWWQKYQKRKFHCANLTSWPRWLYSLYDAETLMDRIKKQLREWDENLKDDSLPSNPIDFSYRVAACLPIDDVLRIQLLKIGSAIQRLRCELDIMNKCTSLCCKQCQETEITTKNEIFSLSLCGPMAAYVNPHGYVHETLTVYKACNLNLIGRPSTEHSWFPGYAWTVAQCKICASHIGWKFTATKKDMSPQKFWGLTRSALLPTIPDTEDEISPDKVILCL
IKZF2, sequence (Q16531 2-1140 partner): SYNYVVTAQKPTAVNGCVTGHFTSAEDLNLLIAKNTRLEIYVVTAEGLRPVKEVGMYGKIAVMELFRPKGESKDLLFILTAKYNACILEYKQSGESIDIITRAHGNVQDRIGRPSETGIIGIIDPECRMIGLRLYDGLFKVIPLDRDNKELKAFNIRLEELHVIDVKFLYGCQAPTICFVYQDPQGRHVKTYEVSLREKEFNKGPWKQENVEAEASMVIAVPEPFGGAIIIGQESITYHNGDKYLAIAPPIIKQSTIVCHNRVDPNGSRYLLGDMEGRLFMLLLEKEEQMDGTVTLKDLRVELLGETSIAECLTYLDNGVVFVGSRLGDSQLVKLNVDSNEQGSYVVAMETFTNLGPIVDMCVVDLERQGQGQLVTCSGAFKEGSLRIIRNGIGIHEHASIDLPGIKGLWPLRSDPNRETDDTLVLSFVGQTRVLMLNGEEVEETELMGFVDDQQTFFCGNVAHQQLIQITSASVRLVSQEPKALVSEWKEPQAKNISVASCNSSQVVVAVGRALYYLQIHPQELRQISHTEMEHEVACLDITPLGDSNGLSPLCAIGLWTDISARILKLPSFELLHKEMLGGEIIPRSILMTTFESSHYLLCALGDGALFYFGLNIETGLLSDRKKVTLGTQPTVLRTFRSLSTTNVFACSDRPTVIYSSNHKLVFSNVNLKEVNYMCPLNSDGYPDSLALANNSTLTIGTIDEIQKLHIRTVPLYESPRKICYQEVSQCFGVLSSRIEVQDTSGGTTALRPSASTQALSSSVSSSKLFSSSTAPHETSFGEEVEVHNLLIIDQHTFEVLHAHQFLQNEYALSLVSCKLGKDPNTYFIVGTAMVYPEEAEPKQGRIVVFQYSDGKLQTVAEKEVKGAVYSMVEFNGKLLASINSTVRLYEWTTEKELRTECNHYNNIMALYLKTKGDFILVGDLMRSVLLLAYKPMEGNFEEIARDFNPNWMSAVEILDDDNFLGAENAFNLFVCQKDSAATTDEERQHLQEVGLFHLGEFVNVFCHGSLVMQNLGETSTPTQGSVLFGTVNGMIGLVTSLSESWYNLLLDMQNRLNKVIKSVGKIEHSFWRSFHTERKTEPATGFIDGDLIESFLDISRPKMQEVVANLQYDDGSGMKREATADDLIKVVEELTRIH
Description: In vitro IKZF2 Western Blot Assay Jurkat cells (ATCC, Cat #HB-8065) were cultured in RPMI1640+10% FBS+1% P/S. Cells were treated at desired compound concentrations (0.001, 0.01, 0.1, 1, and 10 μM) and DMSO as vehicle control for 24 hrs. After 24 hr of treatment cells were collected by centrifugation and lysed in RIPA lysis buffer on ice for 10 min. After assessing protein concentration by BCA assay (Pierce), equal amounts of protein for each sample were loaded into 4-12% Bis-Tris gels (Invitrogen), transferred to PVDF membranes and immunoblotted with antibodies against IKZF2 and Actin (Cell Signaling). Membranes were developed on an Odyssey detection system (LI-COR Biosciences) after incubation with IRDye800-labeled goat anti-rabbit IgG and IRDye680-labeled goat anti-mouse IgG (LI-COR) secondary antibodies. Band intensities were quantified using ImageStudio software. Data was further analyzed using XLfit. Percentage of IKZF2 protein degradation: A (>50%); B (30-50%); C(<30%) (Table 2).

CRBN/DDB1, sequence (Q96SW2 whole entry, species assumed): as the sequence (Q96SW2 whole entry) above
CRBN/DDB1, sequence (Q16531 whole entry partner, species assumed): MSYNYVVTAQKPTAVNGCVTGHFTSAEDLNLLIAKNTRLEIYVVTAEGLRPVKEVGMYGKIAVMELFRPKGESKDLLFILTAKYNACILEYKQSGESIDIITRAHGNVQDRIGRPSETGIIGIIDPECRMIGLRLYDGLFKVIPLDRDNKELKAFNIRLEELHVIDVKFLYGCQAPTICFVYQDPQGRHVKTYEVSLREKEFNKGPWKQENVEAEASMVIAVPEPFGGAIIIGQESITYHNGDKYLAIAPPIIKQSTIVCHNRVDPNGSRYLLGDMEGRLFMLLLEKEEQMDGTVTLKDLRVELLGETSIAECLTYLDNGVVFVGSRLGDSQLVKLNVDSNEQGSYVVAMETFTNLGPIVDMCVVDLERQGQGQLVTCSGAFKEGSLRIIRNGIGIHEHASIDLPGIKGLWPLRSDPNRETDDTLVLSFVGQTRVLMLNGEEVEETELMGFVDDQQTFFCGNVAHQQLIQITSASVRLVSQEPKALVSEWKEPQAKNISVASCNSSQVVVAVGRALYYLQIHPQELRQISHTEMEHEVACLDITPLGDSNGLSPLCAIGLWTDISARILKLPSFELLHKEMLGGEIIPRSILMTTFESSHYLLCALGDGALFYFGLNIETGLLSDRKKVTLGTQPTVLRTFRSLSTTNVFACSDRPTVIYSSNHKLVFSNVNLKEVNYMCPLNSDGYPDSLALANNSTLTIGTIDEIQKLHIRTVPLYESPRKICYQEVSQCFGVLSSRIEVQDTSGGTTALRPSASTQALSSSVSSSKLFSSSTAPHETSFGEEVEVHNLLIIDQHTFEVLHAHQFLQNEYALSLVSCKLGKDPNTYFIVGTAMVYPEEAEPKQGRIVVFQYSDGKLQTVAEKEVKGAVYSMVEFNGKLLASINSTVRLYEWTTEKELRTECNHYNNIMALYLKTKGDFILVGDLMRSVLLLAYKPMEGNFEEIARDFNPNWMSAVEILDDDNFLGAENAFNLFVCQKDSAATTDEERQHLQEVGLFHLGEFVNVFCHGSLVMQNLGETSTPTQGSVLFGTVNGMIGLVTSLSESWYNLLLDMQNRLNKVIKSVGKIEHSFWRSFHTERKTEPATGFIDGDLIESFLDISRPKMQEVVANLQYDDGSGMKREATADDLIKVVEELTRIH

SMILES: O=C1CCC(N2Cc3cc(-c4cc(CNCCc5c(Cl)cccc5Cl)cn5ccnc45)ccc3C2=O)C(=O)N1 (stereo not drawn) [Example 41, 3-(5-(6-(((2,6-dichlorophenethyl)amino)methyl)imidazo[1,2-a]pyridin-8-yl)-1-oxoisoindolin-2-yl) piperidine-2,6-dione]
- IC50 (CRBN/DDB1): 100 to 500 nM
- inhibition at 0.001 µM (IKZF2): < 30%
- inhibition at 0.01 µM (IKZF2): < 30%
- inhibition at 0.1 µM (IKZF2): < 30%
- inhibition at 1 µM (IKZF2): < 30%
- inhibition at 10 µM (IKZF2): < 30%

SMILES: O=C1CCC(N2Cc3cc(-c4cc(CN5CCC(F)(F)CC5)cn5ccnc45)ccc3C2=O)C(=O)N1 (stereo not drawn) [Example 35, 3-(5-(6-((4,4-difluoropiperidin-1-yl)methyl)imidazo[1,2-a]pyridin-8-yl)-1-oxoisoindolin-2-yl) piperidine-2,6-dione]
- IC50 (CRBN/DDB1): 100 to 500 nM
- inhibition at 0.001 µM (IKZF2): < 30%
- inhibition at 0.01 µM (IKZF2): < 30%
- inhibition at 0.1 µM (IKZF2): < 30%
- inhibition at 1 µM (IKZF2): < 30%
- inhibition at 10 µM (IKZF2): < 30%

SMILES: O=C1CCC(N2Cc3cc(-c4cc(CNCCc5ccccc5C(F)(F)F)cn5ccnc45)ccc3C2=O)C(=O)N1 (stereo not drawn) [Example 43]
- IC50 (CRBN/DDB1): < 100 nM
- inhibition at 0.001 µM (IKZF2): < 30%
- inhibition at 0.01 µM (IKZF2): < 30%
- inhibition at 0.1 µM (IKZF2): < 30%
- inhibition at 1 µM (IKZF2): < 30%
- inhibition at 10 µM (IKZF2): < 30%

SMILES: CC(C)(NCc1cc(-c2ccc3c(c2)CN(C2CCC(=O)NC2=O)C3=O)c2nccn2c1)c1ccccc1 (stereo not drawn) [Example 46, 3-(1-oxo-5-(6-(((2-phenylpropan-2-yl)amino)methyl)imidazo[1,2-a]pyridin-8-yl)isoindolin-2-yl) piperidine-2,6-dione]
- IC50 (CRBN/DDB1): 100 to 500 nM
- inhibition at 0.001 µM (IKZF2): < 30%
- inhibition at 0.01 µM (IKZF2): < 30%
- inhibition at 0.1 µM (IKZF2): 30 to 50%
- inhibition at 1 µM (IKZF2): > 50%
- inhibition at 10 µM (IKZF2): > 50%
